{
  "source": "ChEMBL document CHEMBL1130720",
  "about": "“Design, synthesis, and conformational analysis of a novel series of HIV protease inhibitors” (Bioorg Med Chem Lett, 1998)",
  "data": [
    {"molecular_target": "T1, Human immunodeficiency virus type 1 protease (Human immunodeficiency virus 1, UniProt Q72874)", "assay": "Binding affinity to HIV-1 protease was determined", "units": {"Ki": "nM"}, "values": [
      {"smiles": "COc1ccc(S(=O)(=O)N(CC2CCCC2)C[C@@H](O)CN(CCc2ccccc2)C(=O)OC2CCCSC2)cc1", "note": "(some centres undefined)", "Ki": 300},
      {"smiles": "COc1ccc(S(=O)(=O)N(CC2CCCC2)C[C@@H](O)CN(CCc2ccccc2)C(=O)Cc2cncc(NS(N)(=O)=O)c2)cc1", "Ki": 220},
      {"smiles": "COc1ccc(S(=O)(=O)N(CC2CCCC2)C[C@@H](O)CN(CCc2ccccc2)C(=O)Cc2cccc(NS(N)(=O)=O)c2C)cc1", "Ki": 680},
      {"smiles": "COc1ccc(S(=O)(=O)N(CC2CCCC2)C[C@@H](O)CN(CCc2ccccc2)C(=O)O[C@@H]2CO[C@H]3OCC[C@H]32)cc1", "Ki": 50},
      {"smiles": "COc1ccc(S(=O)(=O)N(CC(O)CN(CCc2ccccc2)C(=O)N[C@H](C(=O)OCc2ccccc2)C(C)C)CC2CCCC2)cc1", "note": "(single isomer, unassigned)", "Ki": 7},
      {"smiles": "COc1ccc(S(=O)(=O)N(CC2CCCC2)C[C@@H](O)CN(CCc2ccccc2)C(=O)OC(C)(C)C)cc1", "Ki": 125},
      {"smiles": "COc1ccc(S(=O)(=O)N(CC2CCCC2)C[C@@H](O)CN(CCc2ccccc2)C(=O)Oc2ccccc2)cc1", "Ki": 173},
      {"smiles": "COc1ccc(S(=O)(=O)N(CC2CCCC2)C[C@@H](O)CN(CCc2ccccc2)C(=O)OC2CCS(=O)(=O)C2)cc1", "note": "(some centres undefined)", "Ki": 38},
      {"smiles": "COc1ccc(S(=O)(=O)N(CC2CCCC2)C[C@@H](O)CN(CCc2ccccc2)C(=O)Cc2ccncc2NS(N)(=O)=O)cc1", "Ki": 27},
      {"smiles": "COc1ccc(S(=O)(=O)N(CC2CCCC2)C[C@@H](O)CN(CCc2ccccc2)C(=O)OC2COCOC2)cc1", "Ki": 15},
      {"smiles": "COc1ccc(S(=O)(=O)N(CC2CCCC2)C[C@@H](O)CN(CCc2ccccc2)C(=O)Cc2cccc(O)c2C)cc1", "Ki": 66},
      {"smiles": "COc1ccc(S(=O)(=O)N(CC2CCCC2)C[C@@H](O)CN(CCc2ccccc2)C(=O)OCc2ccncc2)cc1", "Ki": 200},
      {"smiles": "COc1ccc(S(=O)(=O)N(CC2CCCC2)C[C@@H](O)CN(CCc2ccccc2)C(=O)Cc2ccccc2)cc1", "Ki": 20},
      {"smiles": "COc1ccc(S(=O)(=O)N(CC2CCCC2)C[C@@H](O)CN(CCc2ccccc2)C(=O)OCc2cncs2)cc1", "Ki": 38},
      {"smiles": "COc1ccc(S(=O)(=O)N(CC2CCCC2)C[C@@H](O)CN(CCc2ccccc2)C(=O)CC2CCCC(NS(N)(=O)=O)C2)cc1", "note": "(some centres undefined)", "Ki": 76},
      {"smiles": "COc1ccc(S(=O)(=O)N(CC2CCCC2)C[C@@H](O)CN(CCc2ccccc2)C(=O)OCc2cccnc2)cc1", "Ki": 17},
      {"smiles": "COc1ccc(S(=O)(=O)N(CC2CCCC2)C[C@@H](O)CN(CCc2ccccc2)C(=O)OC2CCCS(=O)(=O)C2)cc1", "note": "(some centres undefined)", "Ki": 1400},
      {"smiles": "COc1ccc(S(=O)(=O)N(CC2CCCC2)C[C@@H](O)CN(CCc2ccccc2)C(=O)Cc2cccc(NS(N)(=O)=O)c2)cc1", "Ki": 29},
      {"smiles": "COc1ccc(S(=O)(=O)N(CC2CCCC2)C[C@@H](O)CN(CCc2ccccc2)C(=O)O[C@H]2CCOC2)cc1", "Ki": 40},
      {"smiles": "COc1ccc(S(=O)(=O)N(CC2CCCC2)C[C@@H](O)CN(CCc2ccccc2)C(=O)OC2CCSC2)cc1", "note": "(some centres undefined)", "Ki": 104},
      {"smiles": "COc1ccc(S(=O)(=O)N(CC2CCCC2)C[C@@H](O)CN(Cc2ccccc2)C(=O)O[C@H]2CCOC2)cc1", "Ki": 600}
    ]},
    {"molecular_target": "T1, Human immunodeficiency virus type 1 protease", "assay": "Binding affinity against HIV-1 protease was determined", "units": {"Ki": "nM"}, "values": [
      {"smiles": "COc1ccc(S(=O)(=O)N(CC2CCCC2)C[C@@H](O)CN(CCc2ccccc2)C(=O)NC(C)C)cc1", "Ki": "> 10000"},
      {"smiles": "COc1ccc(S(=O)(=O)N(CC2CCCC2)C[C@@H](O)CN(CCc2ccccc2)C(=O)NCc2ccccc2)cc1", "Ki": 22},
      {"smiles": "COc1ccc(S(=O)(=O)N(CC2CCCC2)C[C@@H](O)CN(CCc2ccccc2)C(=O)Nc2cccc(OC)c2)cc1", "Ki": "> 10000"},
      {"smiles": "COc1ccc(S(=O)(=O)N(CC2CCCC2)C[C@@H](O)CN(CCc2ccccc2)C(=O)NC2CCc3ccccc32)cc1", "note": "(some centres undefined)", "Ki": "> 10000"},
      {"smiles": "COc1ccc(S(=O)(=O)N(CC2CCCC2)C[C@@H](O)CN(CCc2ccccc2)C(=O)NC(C)(C)C)cc1", "Ki": 2100},
      {"smiles": "COc1ccc(S(=O)(=O)N(CC2CCCC2)C[C@@H](O)CN(CCc2ccccc2)C(=O)N[C@H]2c3ccccc3C[C@H]2O)cc1", "Ki": 43},
      {"smiles": "COc1ccc(S(=O)(=O)N(CC2CCCC2)C[C@@H](O)CN(CCc2ccccc2)C(=O)Nc2ccccc2)cc1", "Ki": "> 20000"},
      {"smiles": "CNC(=O)N(CCc1ccccc1)C[C@H](O)CN(CC1CCCC1)S(=O)(=O)c1ccc(OC)cc1", "Ki": 3400}
    ]}
  ]
}
